Experiment: Pharmacokinetic evaluation of prodrugs in rats (plasma olanzapine and prodrug after intramuscular injection)
Assay type: in vivo, Male Sprague-Dawley rats
Settings: ([Prodrug AUClast/MWprodrug]/[OLZ AUCINF/MWOLZ])*100, IM, dose 3 mg
Procedure: Male Sprague-Dawley rats (Charles River Laboratories, Wilmington, Mass.) 25 male Sprague-Dawley rats are obtained. Approximately 24 rats are used in each study. Rats are approximately 325-350 g at time of arrival, and are housed 2 per cage with ad libitum chow and water. Environmental conditions in the housing room are 64-76° F., 30% to 70% relative humidity, and 12:12-h light:dark cycle. All experiments are approved by the Institutional Animal Care and Use Committee.
Prodrug compounds (Compound 56, Compound 111, and Compound 112) of the invention and corresponding parent drugs of the prodrugs are tested.
Rats are dosed IM by means of a 25 gauge, ⅝ in. needle with 1 cc syringe. 0.3mL suspension is withdrawn from the vial containing the test compound. The rat is injected in the muscles of the hind limb after anesthesia with isoflourane. Blood samples are collected via a lateral tail vein after brief anesthesia with Isoflurane. A 27½ G needle and lcc syringe without an anticoagulant is used for the blood collection. Approximately 250 μL of whole blood is collected at each sampling time point of 1 hour, 6 hours, 24 hours and 2, 3, 6, 7, 10, 14 days after administration. Once collected, whole blood is immediately transferred to tubes containing an esterase inhibitor and anti-coagulant, inverted 10-15 times and immediately placed on ice. The tubes are centrifuged for 2 minutes at >14,000 g's (11500 RPMs using Eppendorf Centrifuge at 2-6° C. to separate plasma. Plasma samples are transferred to labeled plain tubes and stored frozen at <−70° C. The study design is shown in Table 5 and the PK results are given in Table 6.
The Olanzapine and prodrug concentrations in plasma samples were analyzed by liquid chromatography-tandem mass spectroscopy using appropriate parameters for each compound.
Half life, maximal concentration, and AUC are calculated using WinNonlin software, version 5.2 (Pharsight, St. Louis, Mo.). (FIGS. 1-4).

Row | Compound | Relative exposure of prodrug
1 | CCCCCCCCCCCCCCCC(=O)OCOC(=O)N1C(N2CCN(C)CC2)=c2cc(C)sc2=Nc2ccccc21 [Compound 56, (palmitoyloxy)methyl 2-methyl-4-(4-methylpiperazin-1-yl)-5H-benzo[b]thieno[2,3-e][1,4]diazepine-5-carboxylate] | Not detected
2 | CCCCCCCCCCCCCCCCCC(=O)OCOC(=O)N1C(N2CCN(C)CC2)=c2cc(C)sc2=Nc2ccccc21 [Compound 111, (stearoyloxy)methyl 2-methyl-4-(4-methylpiperazin-1-yl)-5H-benzo[b]thieno[2,3-e][1,4]diazepine-5-carboxylate] | <3%
3 | CCCCCCCCCCCCCCCCCCCC(=O)OCOC(=O)N1C(N2CCN(C)CC2)=c2cc(C)sc2=Nc2ccccc21 [Compound 112, (icosanoyloxy)methyl 2-methyl-4-(4-methylpiperazin-1-yl)-5H-benzo[b]thieno[2,3-e][1,4]diazepine-5-carboxylate] | 12%

From patent US11225490B2, “Prodrugs of secondary amine compounds” (Alkermes Pharma Ireland Limited, priority 2011, dated 2022)
